From patent US11439639B2, “Pyrazine-containing compound” (CalciMedica, Inc., priority 2015, dated 2022)

Columns and labels:
Mouse Acinar cells = assay: TLCS-induced amylase release in mouse acinar cells; type: cell-based; conditions: TLCS-treated mouse acinar cells, compared with EGTA
Protocol: Amylase release from PACs has an ER calcium-dependent and a CRAC/cytosolic calcium-dependent component. The calcium dependent component is blocked by introduction of the divalent cation chelating agent EGTA. Mouse Acinar cells were treated with TLCS and either vehicle, EGTA, or a CRAC inhibitor such as Compound I, GSK-7975A or Compound II and monitored for Amylase release. It is observed that CRAC inhibitors mimicked EGTA in their effect on Amylase release.

Mouse PACs [1] = assay: Rate of store-operated Calcium entry in mouse PACs, dose dependence; type: cell-based; set-up: block of reuptake: dose or concentration left out as unconfirmed; conditions: for activity at 0.7 µM: Mus musculus, 700 nM of inhibitor, read-out: rate of store-operated Calcium entry, % of control levels
Protocol: Mouse PACs were treated with CRAC inhibitors Compound I (FIG. 5A) or GSK-7975A (FIG. 5B) and monitored for their rate of Calcium uptake. […] Compound I blocks 100% of reuptake […].

Orai2/STIM1 channels = Orai2/STIM1 channels (Homo sapiens, UniProt Q96SN7); assay: CRAC channel inhibition, Orai2/STIM1; type: cell-based
Chain of Orai2/STIM1 channels (Q96SN7 whole entry): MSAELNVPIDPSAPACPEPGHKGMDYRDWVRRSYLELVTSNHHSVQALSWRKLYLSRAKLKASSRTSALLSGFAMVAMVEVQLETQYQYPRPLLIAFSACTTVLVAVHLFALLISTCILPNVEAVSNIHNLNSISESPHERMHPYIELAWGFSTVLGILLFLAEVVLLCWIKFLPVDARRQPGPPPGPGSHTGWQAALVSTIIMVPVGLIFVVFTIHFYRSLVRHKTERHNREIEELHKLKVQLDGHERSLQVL
Chain of Orai2/STIM1 channels (Q13586 23-685 partner): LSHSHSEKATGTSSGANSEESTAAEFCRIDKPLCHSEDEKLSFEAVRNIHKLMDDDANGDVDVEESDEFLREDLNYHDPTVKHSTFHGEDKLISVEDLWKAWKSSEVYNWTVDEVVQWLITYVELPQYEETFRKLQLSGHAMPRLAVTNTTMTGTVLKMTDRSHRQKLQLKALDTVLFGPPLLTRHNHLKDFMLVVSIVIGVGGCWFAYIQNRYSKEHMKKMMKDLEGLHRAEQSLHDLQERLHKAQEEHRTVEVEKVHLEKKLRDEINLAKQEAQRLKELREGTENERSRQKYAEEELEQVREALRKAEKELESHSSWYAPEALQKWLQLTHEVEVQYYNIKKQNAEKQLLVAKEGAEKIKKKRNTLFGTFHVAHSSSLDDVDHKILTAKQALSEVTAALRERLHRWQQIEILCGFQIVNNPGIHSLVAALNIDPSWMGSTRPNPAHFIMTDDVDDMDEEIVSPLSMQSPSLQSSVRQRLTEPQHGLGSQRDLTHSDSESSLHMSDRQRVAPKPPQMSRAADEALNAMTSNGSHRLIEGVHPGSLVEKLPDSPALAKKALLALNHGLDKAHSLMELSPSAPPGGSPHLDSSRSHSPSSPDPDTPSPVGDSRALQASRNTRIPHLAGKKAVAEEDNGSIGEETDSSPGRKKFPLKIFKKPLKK
Protocol: (§1) Compound I and GSK-7975A were assayed for their inhibitory effect on CRAC channels. Channels comprising Orai1/STIM1 and Orai2/STIM1 were assayed.

Mouse PACs [2] = assay: CPA-induced store-operated Ca2+ entry (calcium reuptake) in mouse PACs; type: cell-based; conditions: CPA-treated mouse PACs, excess Calcium given 15 minutes after release
Protocol: Mouse PACs were isolated and assayed for the effect of CRAC inhibitors on calcium re-uptake into the ER. Cells were treated with cyclopiazonic acid (CPA) alone (FIG. 4A) or in combination with the CRAC inhibitor Compound I (FIG. 4B) to activate CRAC channels to release Ca^2+. At 15 minutes following Calcium release, cells were provided with an excess of Calcium and monitored for Calcium uptake into the ER.

murine T cells = assay: Store-operated Ca2+ entry in murine T cells under Th1-, Th2-, Th17-polarizing conditions; type: cell-based; conditions: 1 μM Compound I, Th17 versus naive
Protocol: Naive and stimulated murine T cells cultured under Th1-, Th2-, and Th17-polarizing conditions are treated with either DMSO, DMSO plus 500 μM TLCS, or DMSO plus 500 μM TLCS plus 1 μM of the CRAC inhibitor Compound I. Store-operated Ca^2+ entry (SOCE) is quantified in each treatment.

[3] = system: T cells in bulk human PBMCs; assay: Cytokine release from anti-CD3/anti-CD28 stimulated human PBMCs (Luminex); type: cell-based; conditions: plate-bound anti-CD3/anti-CD28, 10% serum, 48 hrs
Protocol: Compound I was tested for its inhibitory effect on a number of cytokines. Cytokines INF-gamma, IL-4, and IL-4 receptors of which are expressed on Acinar cells, cytokines IL-lbeta, IL-6, IL-10 and TNF-alpha, expressed in Acinar cells, and IL-2 and IL-7, cytokines important in T-cell function, were tested for an inhibitory effect of the CRAC inhibitor Compound I. T cells in bulk human PBMCs were stimulated with plate-bound anti-CD3/anti-CD28 in buffer +10% serum for 48 hrs. Released cytokines were measured by Luminex at Millipore.

Mouse PACs [4] = assay: CCK-induced Ca2+ entry in mouse PACs; type: cell-based; conditions: CCK 10 nM, then 1.8 mM Calcium; pretreatment with inhibitor
Protocol: Mouse PACs were monitored for their Calcium uptake upon treatment with CCK at 10 nM. Cells were treated with CCK, and then provided with 1.8 mM Calcium and Calcium reuptake was monitored. […] Compound I pretreatment reduced Calcium re-uptake to near 0% of the control. GSK-7975A reduced calcium reuptake to about 30% of the control.

[5] = system: caerulein-induced acute pancreatitis; assay: Serum amylase and serum lipase in mouse caerulein model of acute pancreatitis; type: in vivo; conditions: doses up to 20 mg/kg
Protocol: Mice were either untreated (Normal), treated with CCK only (vehicle), or treated with CCK in combination with CsA or a CRAC inhibitor at the indicated dose. Serum amylase activity (FIG. 9A) and Serum Lipase activity (FIG. 9B) (IU/L) were measured.

[6] = Compound levels in the pancreas after i.p. injection; type: in vivo, mouse; conditions: as a function of dose
Candid-1 JUNV = type: cell-based, Junin virus; conditions: VeroE6 cells; 1, 10, 25, 50 μM Compound I
Mouse PACs [7] = assay: TLCS-induced Ca2+ entry in mouse PACs (cytosolic calcium, F345/F380); type: cell-based; conditions: 500 μM TLCS; Compound I at 1 or 3 μM
Protocol: Mouse PACs were treated with 500 μM TLCS and either 0, 1μM or 3 μM of the CRAC inhibitor Compound I. Cytosolic Calcium levels (measured as F345/ F380 ratios) were measured for each treatment. TLCS releases Ca^2+ from intracellular stores (not shown), initiating SOCE. […] The results are depicted in FIG. 11.

[8] = system: caerulein-induced pathology in the mouse pancreas; assay: Mouse caerulein model of acute pancreatitis, prophylactic i.p. dosing, pancreas pathology; type: in vivo; conditions: C57B6 mice
Protocol: Mice were treated with a CRAC inhibitor or a vehicle prophylactically, and then challenged with CCK to trigger acute pancreatitis.

[9] = system: Mouse Pancreatic Acinar Cells (PACs); assay: TLCS-induced necrosis in mouse pancreatic acinar cells (propidium iodide uptake); type: cell-based
Protocol: (§2) Mouse Pancreatic Acinar Cells (PACs) were extracted and incubated with either a carrier (control) or with natural bile acid TLCS (taurolithocholic acid 3-sulfate) in the absence or presence of GSK-7975A. Cells were contacted with propidium iodide to assay for cell necrosis. TLCS treatment to individual cells in vitro mimics the effect of a gall stone or other blockage in pancreatic secretion in vivo.
Mouse PACs were treated with either DMSO, DMSO plus 500 μM TLCS, or DMSO plus 500 μM TLCS plus 1 μM of the CRAC inhibitor Compound I. Cell necrosis was measured as % PI uptake. The CRAC inhibitor Compound I inhibits TLCS-induced necrosis in mouse PACs.

Orai1/STIM1 channels = Orai1/STIM1 channels (Homo sapiens, UniProt Q96D31); assay: CRAC channel inhibition, Orai1/STIM1; type: cell-based; conditions: for IC50: Orai1/STIM1 channels
Chain of Orai1/STIM1 channels (Q96D31 whole entry): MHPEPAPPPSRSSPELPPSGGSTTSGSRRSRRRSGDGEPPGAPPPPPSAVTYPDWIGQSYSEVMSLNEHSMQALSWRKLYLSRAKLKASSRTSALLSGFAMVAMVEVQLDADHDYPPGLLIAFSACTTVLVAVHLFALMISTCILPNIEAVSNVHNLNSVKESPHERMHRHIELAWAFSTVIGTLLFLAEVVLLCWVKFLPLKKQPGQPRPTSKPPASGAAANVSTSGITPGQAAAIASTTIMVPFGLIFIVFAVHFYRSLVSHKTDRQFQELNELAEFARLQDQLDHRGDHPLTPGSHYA
Chain of Orai1/STIM1 channels (Q13586 23-685 partner): as the sequence (Q13586 23-685 partner) above
Protocol: as §1

Th17 cells = assay: Cytokine production by Th1, Th2 and Th17 cells; type: cell-based, murine; conditions: compared with IFN-γ and IL-4 production by Th1 and Th2 cells
[10] = system: caerulein-induced pathology in the pancreas; assay: Therapeutic/prophylactic mouse caerulein model, histopathology scores; type: in vivo
Protocol: Seven hourly i.p. injections of caerulein were given to induce pancreatitis, with animals sacrificed 8 hr after the 1st injection. Compound I was administered i.p. either 30 min before the 1st caerulein injection (prophylactic), or after the 3rd injection (therapeutic). CsA was administered p.o. on the same schedule as Compound I. The results are depicted in FIG. 10. Histopathology scores were measured in light of observation of Acinar cell degeneration, coagulation necrosis, and inflammation and edema measurements. Compound I produced a significant 35% reduction in caerulein-induced pathology in the pancreas when administered after the 3rd caerulein injection, consistent with efficacy in a therapeutic mode.

[11] = system: Mouse acute pancreatitis models; assay: Mouse acute pancreatitis models (Caerulein, TLCS, FAEE), pancreas histopathology; type: in vivo; conditions: TLCS or FAEE model, doses giving tissue levels 10× or 40× the IC50, more pronounced at 40×
Source text: Mouse acute pancreatitis models were used to evaluate the effect of a CRAC inhibitor on pancreas histopathological progression. Caerulein is used to hyper-stimulate CCK receptors in the normal Calcium signaling pathway in the mouse pancreas. TLCS is used to induce acute pancreatitis through simulation of an excess of bile acid, as would be experienced in a gallstone induced acute pancreatitis. Fatty acid ethyl esters (FAEE) are used to simulate alcohol-induced acute pancreatitis. Mice were treated with the acute pancreatitis agent (Caerulin, FIG. 2A, TLCS, FIG. 2B or FAEE, FIG. 2C) alone or with the CRAC inhibitor GSK-7975A at either 10× or 40× the IC50 of the CRAC inhibitor.

Human PACs = assay: TLCS-induced necrosis in human pancreatic acinar cells (propidium iodide); type: cell-based; conditions: TLCS plus 10 μM GSK-7975A, TLCS alone about 45%, no TLCS about 23%
Protocol: as §2, with “Human PACs” for “Mouse Pancreatic Acinar Cells (PACs)”, “TLCS” for “TLCS (taurolithocholic acid 3-sulfate)”

In the case of Cc1cccc(F)c1C(=O)Nc1cnc(-c2cc3c(cc2Cl)OC(F)(F)O3)cn1 [Compound I, N-(5-(6-chloro-2,2-difluorobenzo[d][1,3]dioxol-5-yl)pyrazin-2-yl)-2-fluoro-6-methylbenzamide], the “effect on Amylase release” value (Mouse Acinar cells) is reported as “mimicked EGTA”, the block of reuptake (Mouse PACs [1]) is reported as 100% and the activity at 0.7 µM (Mouse PACs [1]) is reported as 50%. For the same compound, the IC50 (Orai2/STIM1 channels) was 895 nM, the “reuptake of Calcium” value (Mouse PACs [2]) was “do not demonstrate reuptake of Calcium” and the “Store-operated Ca2+ entry (SOCE)” value (murine T cells) was “blocks SOCE stronger in differentiated Th17 cells”. For the same compound, the “release of multiple cytokines” value [3] was “potently inhibits”, the “Calcium re-uptake, % of the control” value (Mouse PACs [4]) was ~0% and the “caerulein-induced serum amylase activity” value [5] was “significant and dose-dependent reductions”. For the same compound, the “caerulein-induced serum lipase activity” value [5] was “significant and dose-dependent reductions”, the “Compound I levels in the pancreas” value [6] was “dose-proportional increase” and the “JUNV virus production (foci)” value (Candid-1 JUNV) was “statistically significant, dose-dependent reduction”. For the same compound, the “TLCS-induced Ca2+ entry” value (Mouse PACs [7]) was “completely blocked”, the “caerulein-induced pathology in the mouse pancreas” value [8] was “significant and dose-dependent reductions” and the “TLCS-induced necrosis (% PI uptake)” value ([9]; 500 μM TLCS plus 1 μM Compound I) was “inhibits”. For the same compound, the “potency on Orai1-type CRAC channels compared to GSK-7975A” value (Orai1/STIM1 channels; Compound I versus GSK-7975A) was “about 4 fold”, the IC50 (Orai1/STIM1 channels) was 119 nM and the “IL-17A production by Th17 cells” value (Th17 cells) was “more severely affected”. The “reduction in caerulein-induced pathology in the pancreas” value ([10]; prophylactic: i.p. 30 min before the 1st caerulein injection) was 26% and the “reduction in caerulein-induced pathology in the pancreas” value ([10]; therapeutic: i.p. after the 3rd caerulein injection) was 35%.

For Cc1nc2cc(C)c(-c3cnc(NC(=O)c4c(F)ccc(F)c4F)s3)cc2o1 [Compound II, N-(5-(2,5-dimethylbenzo[d]oxazol-6-yl)thiazol-2-yl)-2,3,6-trifluorobenzamide], the “effect on Amylase release” value (Mouse Acinar cells) was “mimicked EGTA”.

In the case of O=C(Nc1ccn(Cc2ccc(O)cc2C(F)(F)F)n1)c1c(F)cccc1F [GSK-7975A, 2,6-Difluoro-N-(1-(4-hydroxy-2-(trifluoromethyl)benzyl)-1H-pyrazol-3-yl)benzamide, reference compound], the “effect on Amylase release” value (Mouse Acinar cells) is reported as “mimicked EGTA”, the activity at 0.7 µM (Mouse PACs [1]) is reported as 50% and the IC50 (Orai2/STIM1 channels) is reported as 1450 nM. The “Calcium re-uptake, % of the control” value (Mouse PACs [4]) was “about 30%”, the percent necrosis ([9]; TLCS plus 10 μM GSK-7975A, TLCS alone about 45%, no TLCS about 10%) was “about 23%” and the total histopathology score [11] was “substantially reduces”. For the same compound, the IC50 (Orai1/STIM1 channels) was 398 nM and the percent necrosis (Human PACs) was “about 30%”.
